The values below come from patent publication US11117901B2, “Substituted pyrazolo[4,3-h]quinazolines as choline kinase inhibitors” (NERVIANO MEDICAL SCIENCES S.R.L., priority 2017, dated 2021).

One assay addresses T1, Δ49N-hChoKα (Homo sapiens, UniProt P35790).
T1 construct: cDNA fragment 362-1534, corresponding to aminoacids 50 457; GST (N, cleaved yes); PreScission Protease recognition site (N); made in house; host or cells: Escherichia coli BL21pLysS (DE3)
In words: Biochemical kinase inhibition assay (Kinase-Glo luminescent) on Δ49N-hChoKα. The following applies: recombinant Δ49N-hChoKα 2.2 nM, ATP 5 μM, choline 5 μM, 60 min rt; read-out: ChoKα IC50. The method, then:
(§1) HumanΔ49ChoKα ([…]Δ49N-hChoKα) cDNA fragment 362-1534, corresponding to aminoacids 50 457 (J. Mol. Biol. 2006, 364, 136-151), and hChoKβ full length (FL), corresponding to aminoacids 2-395 ((PLoS ONE 2009, 4, e7819), were amplified by PCR from human library and cloned, inserting upstream a Prescission Protease recognition site, in pDonor 221 vector, using the Gateway Technology® (Invitrogen). After sequence control, LR reaction was performed in the final expression pGEX 2Tg vector. Both the proteins were expressed in Escherichia coli BL21pLysS (DE3) strain in auto-induction (Kessler) medium in the presence of […] carbenicillin at 25° C. for 16 h. Cells were harvested by centrifugation, the pellet was re-suspended in Lysis buffer (50 mM Tris-HCl pH 7.8, 150 mM NaCl, 10% glycerol, 0.2% CHAPS, 20 mM DTT, Protease Inhibitor Cocktail Tablets from Roche Biochemicals) and lysed by Gaulin homogenizer (Niro Soavi). The lysate was cleared by centrifugation. The supernatant was added to GSH resin and let flow by gravity. The GSH resin was washed with 5 column volume (CV) of cold wash buffer (50 mM Tris-HCl pH 7.8, 150 mM NaCl, 10% glycerol), then with 10 CV of the same buffer containing 2 mM of DTT. Both GST-Δ49N-hChoKα and hChoKβ were subjected to on-column cleavage of the GST tag with Prescission Protease overnight. The eluted cleaved proteins were further purified by ion exchange (ResQ 6 mL chromatography column from GE healthcare) with a gradient from 50 to 500 mM NaCl in 30 CV. The fractions containing […]Δ49N-hChoKα or hChoKβ were pooled, concentrated and gel filtered on a Superdex200 16/60 (GE Healthcare). The final protein concentration was estimated using the Bradford assay. All the samples purified were resolved by SDS-PAGE.
(§2) Biochemical Kinase inhibition Assay on Δ49N-hChoKα and hChoKβFL
(§3) The biochemical activity of compounds against Δ49N-ChoKα and ChoK3 FL were determined using the Kinase-Glo™ Luminescent Kinase Assay (Promega cat. V6711). The assay is based on incubation of the recombinant Δ49N-hChoKα and hChoKβ FL produced in house, 2.2 nM and 30 nM, respectively, with the specific substrates, choline (Sigma-Aldrich-C7017) and ATP, followed by quantification, at the end of reaction time, of the residual not reacted ATP.
(§4) Compounds were 3-fold serially diluted from 10 to 0.0005 μM, then incubated for 60 minutes at room temperature in the presence of ATP 5 μM, choline (5 μM for ChoKα and 20 μM for ChoKβ) and enzyme in a final volume of 19 μL of kinase buffer (50 mM Hepes pH 7.5, 10 mM MgCl2, 1 mM DTT, 3 μM Na3VO4 and 0.2 mg/mL BSA). The final concentration of DMSO was 1%. The assay was run in a robotized format on 384-well plates (Perkin Elmer cat. #6005301).
(§5) At the end of the incubation, an amount of 19 μL of KinaseGlo Reagent was added to each well to stop the reaction and after 30 minutes the luminescence signal was measured using ViewLux reader (Perkin Elmer).
(§6) All information about plate dilution, distribution and raw data of inhibition are tracked via barcode reading and stored in an Oracle DB. The data per each molecule are analyzed by an internally customized version of the SW package “Assay Explorer” which provides sigmoidal fittings of the ten-dilution curves for IC50 determination using a 4 parameter logistic equation: y=bottom+(top−bottom)/(1+10^((log IC50−x)*slope)) where x is the logarithm of the inhibitor concentration, y is the response; y starts at bottom and goes to top with a sigmoid shape.

The next assay addresses T2, hChoKβ FL (Homo sapiens, UniProt Q9Y259).
T2 construct: hChoKβ full length (FL), corresponding to aminoacids 2-395; GST (N, cleaved yes); PreScission Protease recognition site (N); made in house; host or cells: Escherichia coli BL21pLysS (DE3)
In words: Biochemical kinase inhibition assay (Kinase-Glo luminescent) on hChoKβ FL. As to conditions: recombinant hChoKβ FL 30 nM, ATP 5 μM, choline 20 μM, 60 min rt; read-out: ChoKβ IC50. The method, then: as §1, §2, §3, §4, §5, §6

T1 sequence (P35790 50-439 isoform P35790-2): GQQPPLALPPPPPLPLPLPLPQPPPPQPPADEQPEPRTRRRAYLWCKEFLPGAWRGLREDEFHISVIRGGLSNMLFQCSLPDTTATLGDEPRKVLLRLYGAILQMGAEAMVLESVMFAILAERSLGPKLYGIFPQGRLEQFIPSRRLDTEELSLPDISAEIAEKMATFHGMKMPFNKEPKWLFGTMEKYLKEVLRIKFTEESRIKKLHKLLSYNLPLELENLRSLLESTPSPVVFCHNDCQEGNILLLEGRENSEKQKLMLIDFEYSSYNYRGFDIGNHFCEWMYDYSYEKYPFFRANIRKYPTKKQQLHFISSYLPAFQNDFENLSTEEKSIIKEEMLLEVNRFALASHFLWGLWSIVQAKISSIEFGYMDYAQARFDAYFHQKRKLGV
T2 sequence (Q9Y259 2-395): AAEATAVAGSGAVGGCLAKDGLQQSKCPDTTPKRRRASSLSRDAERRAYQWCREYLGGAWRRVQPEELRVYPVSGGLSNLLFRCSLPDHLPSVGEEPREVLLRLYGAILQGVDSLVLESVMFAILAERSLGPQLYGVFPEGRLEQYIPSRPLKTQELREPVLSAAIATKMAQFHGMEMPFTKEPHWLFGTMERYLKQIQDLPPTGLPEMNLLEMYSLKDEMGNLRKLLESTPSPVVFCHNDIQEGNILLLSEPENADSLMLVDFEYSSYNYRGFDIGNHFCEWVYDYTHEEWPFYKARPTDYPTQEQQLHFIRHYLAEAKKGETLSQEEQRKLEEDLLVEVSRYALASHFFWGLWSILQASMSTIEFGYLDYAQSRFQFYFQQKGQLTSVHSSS

Usually IC50 stands for the concentration at which inhibition is half-maximal. For the compound `CC1(C)Cc2cnc(N)nc2-c2[nH]nc(C(=O)Nc3nc(CC(=O)N4CCC(N5CCCC5)CC4)cs3)c21` [compound 37], the IC50 came out at 3 nM on Δ49N-hChoKα and 69 nM on hChoKβ FL.
On to `CNc1ncc2c(n1)-c1[nH]nc(C(=O)Nc3nc(CC(=O)N4CCC(N5CCCCC5)CC4)cs3)c1C(C)(C)C2` [compound 121], for which the IC50 at Δ49N-hChoKα was 18 nM; at hChoKβ FL, above 10000 nM.
`CC1CCN(C2(C)CCN(C(=O)Cc3csc(NC(=O)c4n[nH]c5c4C(C)(C)Cc4cnc(N)nc4-5)n3)CC2)CC1` [compound 227]: the figures for the IC50 on Δ49N-hChoKα and on hChoKβ FL were 2 nM and 26 nM, respectively.
For the compound `CC1(C)Cc2cnc(N)nc2-c2[nH]nc(C(=O)Nc3nc(CNC4CCN(C5CCCCC5)CC4)cs3)c21` [compound 156], the IC50 at Δ49N-hChoKα was determined as 3 nM; at hChoKβ FL, 249 nM.
As for `Cn1nc(C(=O)Nc2nc(COC3CCN(C4CCCCCC4)CC3)cs2)c2c1-c1nc(N)ncc1CC2(C)C` [compound 217], the IC50 at Δ49N-hChoKα turned out to be 18 nM; on hChoKβ FL, 3550 nM.
In the case of `CC(C)(C)OC(=O)NC1CCN(C(=O)c2ccc(NC(=O)c3n[nH]c4c3C(C)(C)Cc3cnc(N)nc3-4)cc2)CC1` [compound 46], the IC50 at Δ49N-hChoKα worked out at 110 nM; on hChoKβ FL, 1620 nM.
Regarding `CC1(C)Cc2cnc(N)nc2-c2[nH]nc(C(=O)Nc3ccc(C(=O)N4CCC(N5CCOC5=O)CC4)cc3)c21` [compound 56], the IC50 at Δ49N-hChoKα amounted to 210 nM; on hChoKβ FL it was 810 nM.
In the case of `CC1(C)Cc2cnc(N)nc2-c2[nH]nc(C(=O)Nc3nc(CC(=O)N4CCC(C(N)=O)CC4)cs3)c21` [compound 90], the IC50 at Δ49N-hChoKα is 161 nM; on hChoKβ FL, above 10000 nM.
For the compound `CC1(C)Cc2cnc(N)nc2-c2[nH]nc(C(=O)Nc3ccc(C(=O)NC4CCOCC4)cc3)c21` [compound 11], the values for the IC50 at Δ49N-hChoKα and at hChoKβ FL were 195 nM and 395 nM, respectively.
The like results for `CC(C)(C)OC(=O)NC1CCN(C(=O)Cc2csc(NC(=O)c3n[nH]c4c3C(C)(C)Cc3cnc(N)nc3-4)n2)CC1` [compound 43] were, in that order, 7 nM and 1030 nM.
Turning to `CC1(C)Cc2cnc(N)nc2-c2[nH]nc(C(=O)Nc3nc(CC(=O)O)cs3)c21` [compound 42], the IC50 on Δ49N-hChoKα is 54 nM; at hChoKβ FL it was above 10000 nM.
In the case of `CN(C)[C@@H]1CCN(C(=O)Cc2csc(NC(=O)c3n[nH]c4c3C(C)(C)Cc3cnc(N)nc3-4)n2)C1` [compound 116], the results for the half-inhibitory concentration (IC50) at Δ49N-hChoKα and on hChoKβ FL were 4 nM and 77 nM, respectively.
Consider `CC1(C)CCC(N2CCC(OCc3csc(NC(=O)c4n[nH]c5c4C(C)(C)Cc4cnc(N)nc4-5)n3)CC2)CC1` [compound 221], for which the IC50 on Δ49N-hChoKα was found to be 10 nM; at hChoKβ FL it was 782 nM.
As for `CC1(C)Cc2cnc(N)nc2-c2[nH]nc(C(=O)Nc3nc(CC(=O)N4CCC(N5CCCCCC5)CC4)cs3)c21` [compound 47], the values for the IC50 at Δ49N-hChoKα and at hChoKβ FL were 2 nM and 86 nM, respectively.
As to `CC1CCN(C2CCN(Cc3cccc(NC(=O)c4n[nH]c5c4C(C)(C)Cc4cnc(N)nc4-5)c3)CC2)CC1` [compound 112], the half-maximal inhibitory concentration (IC50) on Δ49N-hChoKα was determined as 187 nM; at hChoKβ FL, 2130 nM.
On the same counts, the results for `CC1(C)Cc2cnc(N)nc2-c2[nH]nc(C(=O)Nc3ccc4c(c3)OCO4)c21` [compound 4] are 244 nM and 1120 nM.
The like results for `CN(C)CCCNC(=O)Cc1csc(NC(=O)c2n[nH]c3c2C(C)(C)Cc2cnc(N)nc2-3)n1` [compound 95] were, in that order, 15 nM and 126 nM.
The like results for `Cc1csc(NC(=O)c2n[nH]c3c2C(C)(C)Cc2cnc(N)nc2-3)n1` [compound 32] were, in that order, 66 nM and 1090 nM.
`CC1CCN([C@H]2CC[C@H](OCc3csc(NC(=O)c4n[nH]c5c4C(C)(C)Cc4cnc(N)nc4-5)n3)CC2)CC1` [compound 170]: the IC50 came to 17 nM on Δ49N-hChoKα and 887 nM on hChoKβ FL.
For `CC1(C)Cc2cnc(N)nc2-c2[nH]nc(C(=O)Nc3nc(C(F)(F)C(=O)N4CCC(N5CCCCC5)CC4)cs3)c21` [compound 183], the IC50 was 13 nM on Δ49N-hChoKα and 654 nM on hChoKβ FL.
As for `CC1(C)Cc2cnc(N)nc2-c2[nH]nc(C(=O)Nc3nc(CC(=O)N4CCC(O)CC4)cs3)c21` [compound 92], the values for the IC50 on Δ49N-hChoKα and at hChoKβ FL were 228 nM and above 10000 nM, respectively.
In the case of `Cc1nc(NC(=O)c2n[nH]c3c2C(C)(C)Cc2cnc(N)nc2-3)sc1C(=O)NC1CCN(C)CC1` [compound 79], the half-inhibitory concentration (IC50) is 69 nM on Δ49N-hChoKα and 2380 nM on hChoKβ FL.
As for `CC1(C)Cc2cnc(N)nc2-c2[nH]nc(C(=O)Nc3ncc(CC(=O)N4CCC(N5CCCCC5)CC4)s3)c21` [compound 75], the IC50 on Δ49N-hChoKα stood at 47 nM; at hChoKβ FL it was 1750 nM.
For the compound `CN(C)[C@@H]1CCN(Cc2csc(NC(=O)c3n[nH]c4c3C(C)(C)Cc3cnc(N)nc3-4)n2)C1` [compound 148], the half-maximal inhibitory concentration (IC50) was found to be 357 nM at Δ49N-hChoKα and 1100 nM at hChoKβ FL.
In the case of `CC1CCN(C2CCN(C(=O)Cc3csc(NC(=O)c4nn(C)c5c4C(C)(C)Cc4cnc(N)nc4-5)n3)CC2)CC1` [compound 80], the IC50 on Δ49N-hChoKα was 5 nM; on hChoKβ FL it was 3160 nM.
In the case of `CC(C)(C)OC(=O)NC1CCN(Cc2ccc(NC(=O)c3n[nH]c4c3C(C)(C)Cc3cnc(N)nc3-4)cc2)CC1` [compound 133], the IC50 on Δ49N-hChoKα amounted to 536 nM; on hChoKβ FL, 1440 nM.
Turning to `Cc1csc(NC(=O)c2nn(C)c3c2C(C)(C)Cc2cnc(N)nc2-3)n1` [compound 155], the IC50 at Δ49N-hChoKα was 629 nM; on hChoKβ FL, above 10000 nM.
On the same counts, the results for `CC1(C)Cc2cnc(N)nc2-c2[nH]nc(C(=O)Nc3ncc[nH]3)c21` [compound 144] are 546 nM and 688 nM.
With `CC1(C)Cc2cnc(N)nc2-c2[nH]nc(C(=O)Nc3nc(CC(N)=O)cs3)c21` [compound 94], the values for the IC50 on Δ49N-hChoKα and on hChoKβ FL were 73 nM and 1420 nM, respectively.
As for `CN(C)[C@@H]1CCN(C(=O)C2(c3csc(NC(=O)c4n[nH]c5c4C(C)(C)Cc4cnc(N)nc4-5)n3)CC2)C1` [compound 130], the figures for the IC50 on Δ49N-hChoKα and at hChoKβ FL were 534 nM and above 10000 nM, respectively.
Consider `CC1(C)Cc2cnc(N)nc2-c2[nH]nc(C(=O)Nc3nc(CC(=O)N4CC[C@H](O)C4)cs3)c21` [compound 88], for which the IC50 on Δ49N-hChoKα is 141 nM; on hChoKβ FL, above 10000 nM.
On the same counts, the results for `COC(=O)C1(c2csc(NC(=O)c3n[nH]c4c3C(C)(C)Cc3cnc(N)nc3-4)n2)CC1` [compound 127] are 617 nM and above 10000 nM.
The like results for `COc1ccc(NC(=O)c2n[nH]c3c2C(C)(C)Cc2cnc(N)nc2-3)cc1` [compound 2] were, in that order, 247 nM and 974 nM.
With `CC1(C)Cc2cnc(N)nc2-c2[nH]nc(C(=O)Nc3cccc(C(=O)NC4CCCCC4)c3)c21` [compound 25], the IC50 at Δ49N-hChoKα came to 253 nM; at hChoKβ FL, 625 nM.
`CN1CCC(NC(=O)Cc2csc(NC(=O)c3n[nH]c4c3C(C)(C)Cc3cnc(N)nc3-4)n2)CC1` [compound 86]: the results for the IC50 on Δ49N-hChoKα and on hChoKβ FL were 57 nM and 1390 nM, respectively.
For the compound `Cc1nc(NC(=O)c2n[nH]c3c2C(C)(C)Cc2cnc(N)nc2-3)sc1C(=O)NC1CCCCC1` [compound 77], the half-maximal inhibitory concentration (IC50) was 200 nM on Δ49N-hChoKα and 1160 nM at hChoKβ FL.
